Experimental data published in article PMC11224465, “Characterization of the somatostatin system in tilapia: implications for growth and reproduction” (Frontiers in Endocrinology, 2024).
Several values for one entry are separate records, joined by “and”; a condition that tells them apart may be missing. Identical values can stand only once. Entries after “also recorded” stand apart in the source; their conditions may differ. Positions of bridges follow the written chain, without caps; N, C: chain ends. Non-standard residues stand in square brackets, D forms with d. Residues, ends and D or L forms follow the SMILES beside them. *: point of attachment. Ahp = NCCCCCCC(=O)O; Bn = c1ccc(C*)cc1

Assays:
tilapia SSTR2a [1] = target: T1, tilapia SSTR2a (Oreochromis niloticus, UniProt I3KUD5); experiment: Cre-luc reporter assay, ligand plus forskolin, COS-7 cells transfected with SSTR2a; assay type: cell-based, Nile tilapia (Oreochromis niloticus); details: FSK 20 μM, subnanomolar concentrations
T1 sequence (I3KUD5 1-379): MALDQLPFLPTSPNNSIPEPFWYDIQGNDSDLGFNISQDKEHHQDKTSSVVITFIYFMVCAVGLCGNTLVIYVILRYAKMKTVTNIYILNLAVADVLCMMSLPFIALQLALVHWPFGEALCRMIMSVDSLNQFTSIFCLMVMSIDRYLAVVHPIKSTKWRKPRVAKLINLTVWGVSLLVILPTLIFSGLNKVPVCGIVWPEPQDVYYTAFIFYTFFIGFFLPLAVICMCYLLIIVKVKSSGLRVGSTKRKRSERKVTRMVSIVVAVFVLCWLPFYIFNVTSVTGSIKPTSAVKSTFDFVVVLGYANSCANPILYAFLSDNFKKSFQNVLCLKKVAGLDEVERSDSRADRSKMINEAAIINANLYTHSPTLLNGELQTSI
From the text: (§1) The signaling pathways of SSTRs were studied by inserting the entire coding sequence of the four receptors expressed in the pituitary (SSTR2a, SSTR3a, SSTR5b, and SSTR3b; accession nos. XP_003438730.1, XP_019215873.1, XP_003452896.1, and XP_019213185.1, respectively; Table 1 ) into pcDNA3.1 (Invitrogen) and verified by cloning and sequencing. The sequences were obtained from GenScript Biotech based on sequence information retrieved from GenBank. The procedures for transient transfection of the different cell lines and receptor stimulation have been described previously ([35], [36]). In brief, COS-7 cells were cotransfected with a luciferase reporter plasmid (Cre-luc; 3 µg) and one of the SSTRs (3 µg). As a control treatment, the […] (data not shown). […] Six hours after stimulation, the cells were analyzed using the GloMax multidetection system (Promega).

GH plasma levels = experiment: In vivo effect on GH plasma levels (ELISA) after IP injection; set-up: species or system Nile tilapia (Oreochromis niloticus); details: female tilapia, 100 µg/kg IP, sampled 2, 4, 6, 24 h
Protocol: (§2) Adult female tilapia (body weight 89.29 ± 32.93 g) were injected IP with saline, cyclosomatostatin, or octreotide (100 μg/kg; n = 8 fish per group). The fish were bled from the caudal blood vessels into heparinized syringes at 0, 2, 4, 6, and 24 h after injection. Blood was centrifuged at 3,200 rpm for 30 min at 4°C to obtain plasma samples, which were stored at -20°C until assayed. This standard protocol was used previously to test the effect of GnRH and other hypothalamic neuropeptides on circulating levels of LH, FSH, and GH in tilapia ([33], [37], [38]). Three independent experiments were performed for each treatment. Plasma levels of LH, FSH, and GH were measured by specific competitive ELISAs developed for tilapia ([39], [40]) based on recombinant ([…] or rtiGH. The […] produced against […]β ([40]), or rtGH ([39]), and […]βα ([37]) or rtGH ([39]) was used to generate a standard curve. The sensitivity of plasma measurements was 15.84 pg/ml for LH, 0.24 pg/ml for FSH, and 35.0 pg/ml for GH.

human SSTR2 = system: human SSTR2; set-up: method as in PMID 8532003; details: cited from earlier work
tilapia SSTR3b [2] = target: T2, tilapia SSTR3b (Oreochromis niloticus, UniProt I3L056); experiment: Cre-luc reporter assay, agonist/antagonist combination plus forskolin, COS-7 cells with SSTR3b; assay type: cell-based, Nile tilapia (Oreochromis niloticus)
T2 sequence (I3L056 29-511): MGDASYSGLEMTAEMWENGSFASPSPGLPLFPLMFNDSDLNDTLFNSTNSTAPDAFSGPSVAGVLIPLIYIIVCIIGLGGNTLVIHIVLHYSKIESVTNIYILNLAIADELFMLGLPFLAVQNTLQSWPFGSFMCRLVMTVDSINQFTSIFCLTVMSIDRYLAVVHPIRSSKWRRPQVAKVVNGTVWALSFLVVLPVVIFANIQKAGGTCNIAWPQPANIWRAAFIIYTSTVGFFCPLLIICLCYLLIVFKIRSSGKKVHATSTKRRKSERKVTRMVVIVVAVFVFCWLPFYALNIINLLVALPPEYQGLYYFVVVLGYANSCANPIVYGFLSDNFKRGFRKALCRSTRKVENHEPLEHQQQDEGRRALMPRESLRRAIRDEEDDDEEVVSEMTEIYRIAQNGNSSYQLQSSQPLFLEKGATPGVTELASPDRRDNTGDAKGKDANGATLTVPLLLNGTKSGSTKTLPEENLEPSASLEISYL
From the text: as §1
(§3) In another set of assays, the SST receptors were exposed to increasing concentrations of cyclosomatostatin, an SSTR antagonist (0–1000 nM; each in triplicate), in combination with octreotide, an SSTR agonist (10 nM), and FSK (20 μM), or increasing concentrations of octreotide (0–1000 nM; each in triplicate) in combination with cyclosomatostatin (10 nM) and FSK (20 μM). Three individual experiments were conducted using distinct batches of COS-7 cells for each experiment and including three replicates for every concentration.

tilapia SSTR5b [3] = target: T3, tilapia SSTR5b (Oreochromis niloticus, UniProt I3J1C6); experiment: Cre-luc reporter assay, agonist/antagonist combination plus forskolin, COS-7 cells with SSTR5b; assay type: cell-based, Nile tilapia (Oreochromis niloticus); details: mean ± SEM
T3 sequence (I3J1C6 1-359): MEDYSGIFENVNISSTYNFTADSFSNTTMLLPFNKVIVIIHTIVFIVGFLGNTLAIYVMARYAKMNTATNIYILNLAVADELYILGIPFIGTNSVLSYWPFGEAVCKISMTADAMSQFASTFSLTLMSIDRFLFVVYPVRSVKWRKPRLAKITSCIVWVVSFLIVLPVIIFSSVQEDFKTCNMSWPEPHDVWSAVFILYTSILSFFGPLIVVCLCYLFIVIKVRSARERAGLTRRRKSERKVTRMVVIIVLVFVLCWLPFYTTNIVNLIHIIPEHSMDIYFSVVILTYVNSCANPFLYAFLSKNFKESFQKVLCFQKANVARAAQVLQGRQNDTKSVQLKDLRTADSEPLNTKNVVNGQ
From the text: as §1
as §3, with “Three individual experiments were conducted using distinct batches of COS-7 cells for each experiment and including three replicates for every concentration.” left out

SSTR5 = system: SSTR5; set-up: method as in PMID 8532003; details: human; cited from earlier work
tilapia SSTR2a [4] = target: T1, tilapia SSTR2a; experiment: Cre-luc reporter assay, agonist/antagonist combination plus forskolin, COS-7 cells with SSTR2a; assay type: cell-based, Nile tilapia (Oreochromis niloticus); details: mean ± SEM
From the text: as §1
as §3, with “Three individual experiments were conducted using distinct batches of COS-7 cells for each experiment and including three replicates for every concentration.” left out

aggressive behavior = system: aggressive behavior; set-up: method as in PMID 16887916; details: cichlid fish, 4 mg/kg; cited from earlier work
FSH plasma levels = experiment: In vivo effect on FSH plasma levels (ELISA) after IP injection; set-up: species or system Nile tilapia (Oreochromis niloticus); details: female tilapia, 100 µg/kg IP, sampled 2, 4, 6, 24 h
Protocol: as §2

LH plasma levels = experiment: In vivo effect on LH plasma levels (ELISA) after IP injection; set-up: species or system Nile tilapia (Oreochromis niloticus); details: female tilapia, 100 µg/kg IP, sampled 2, 4, 6, 24 h
Protocol: as §2

tilapia SSTR3b [5] = target: T2, tilapia SSTR3b; experiment: Cre-luc reporter assay, ligand plus forskolin, COS-7 cells transfected with SSTR3b; assay type: cell-based, Nile tilapia (Oreochromis niloticus); details: FSK 20 μM alone as backdrop
Protocol: In brief, COS-7 cells were cotransfected with a luciferase reporter plasmid (Cre-luc; 3 µg) and one of the SSTRs (3 µg). […] Six hours after stimulation, the cells were analyzed using the GloMax multidetection system (Promega).

tilapia SSTR3a [6] = target: T4, tilapia SSTR3a (Oreochromis niloticus, UniProt I3K8H1); experiment: Cre-luc reporter assay, ligand plus forskolin, COS-7 cells transfected with SSTR3a; assay type: cell-based, Nile tilapia (Oreochromis niloticus); details: FSK 20 μM, mean ± SEM, read-out: IC50 on SST-R3a (Cre-luciferase)
T4 sequence (I3K8H1 1-482): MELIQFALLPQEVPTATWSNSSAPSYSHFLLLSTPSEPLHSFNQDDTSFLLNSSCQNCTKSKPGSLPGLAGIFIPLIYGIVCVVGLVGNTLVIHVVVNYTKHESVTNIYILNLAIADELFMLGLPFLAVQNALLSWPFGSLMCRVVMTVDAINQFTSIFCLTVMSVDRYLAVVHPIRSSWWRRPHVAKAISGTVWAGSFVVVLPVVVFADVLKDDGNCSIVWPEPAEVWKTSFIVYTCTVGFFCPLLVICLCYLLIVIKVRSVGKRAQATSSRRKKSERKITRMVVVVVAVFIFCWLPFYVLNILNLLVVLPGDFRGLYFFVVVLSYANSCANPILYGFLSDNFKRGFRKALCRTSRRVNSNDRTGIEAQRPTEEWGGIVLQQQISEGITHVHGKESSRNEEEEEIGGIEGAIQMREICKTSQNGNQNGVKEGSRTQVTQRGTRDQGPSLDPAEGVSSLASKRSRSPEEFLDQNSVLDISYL
From the text: as §1

SSTR3a = system: SSTR3a; set-up: method as in PMID 8532003; details: cited from earlier work
tilapia SSTR5b [7] = target: T3, tilapia SSTR5b; experiment: Cre-luc reporter assay, ligand plus forskolin, COS-7 cells transfected with SSTR5b; assay type: cell-based, Nile tilapia (Oreochromis niloticus); details: FSK 20 μM, mean ± SEM, read-out: IC50 on SST-R5b (Cre-luciferase)
From the text: as §1

tilapia SSTR3a [8] = target: T4, tilapia SSTR3a; experiment: Cre-luc reporter assay, agonist/antagonist combination plus forskolin, COS-7 cells with SSTR3a; assay type: cell-based, Nile tilapia (Oreochromis niloticus); details: in presence of octreotide 10 nM and FSK 20 μM, mean ± SEM, read-out: EC50 on SST-R3a (Cre-luciferase)
From the text: as §1
as §3, with “Three individual experiments were conducted using distinct batches of COS-7 cells for each experiment and including three replicates for every concentration.” left out

## C[C@@H](O)[C@@H]1NC(=O)[C@H](CCCCN)NC(=O)[C@@H](Cc2c[nH]c3ccccc23)NC(=O)[C@H](Cc2ccccc2)NC(=O)[C@@H](NC(=O)[C@H](N)Cc2ccccc2)CSSC[C@@H](C(=O)N[C@H](CO)[C@@H](C)O)NC1=O [Octreotide, octreotide]
Tilapia SSTR2a [1]
  Effect on tiSSTR2a Cre-luc activity: inhibited
GH plasma levels
  GH plasma levels vs control: significantly decreased
Human SSTR2
  Affinity to human SSTR2: high affinity
Tilapia SSTR3b [2]; COS-7 cells, in presence of cyclosomatostatin 10 nM and FSK 20 μM, mean ± SEM, read-out: IC50 on SST-R3b (Cre-luciferase)
  IC50: 0.35 ± 0.04 nM
Tilapia SSTR5b [3]; in presence of cyclosomatostatin 10 nM and FSK 20 μM, read-out: IC50 on SST-R5b (Cre-luciferase)
  IC50: 17.4 ± 3.14 nM
SSTR5
  Affinity to SSTR5: high affinity
Tilapia SSTR2a [4]; in presence of cyclosomatostatin 10 nM and FSK 20 μM, read-out: IC50 on SST-R2a (Cre-luciferase)
  IC50: 0.81 ± 0.01 nM
Aggressive behavior
  Aggressive behavior: decrease
FSH plasma levels
  FSH plasma levels vs control: reduced
FSH plasma levels; listed as octreotide
  FSH plasma levels vs control: decreased
LH plasma levels
  LH plasma levels vs control: remained similar to the control; also recorded: no significant effect
LH plasma levels; listed as octreotide
  LH plasma levels vs control: remained unaffected
Tilapia SSTR3b [5]
  Effect on SSTR3b Cre-luc activity: no discernible activation
Tilapia SSTR3a [6]
  IC50: 0.004 nM
SSTR3a
  Affinity to SSTR3a: moderate affinity
Tilapia SSTR5b [7]
  IC50: 906 nM and 157 nM

## C[C@@H](OCc1ccccc1)[C@@H]1NC(=O)[C@H](CCCCN)NC(=O)[C@@H](Cc2c[nH]c3ccccc23)NC(=O)[C@H](Cc2ccccc2)NC(=O)CCCCCCNC1=O [Cyclosomatostatin, cyclosomatostatin] (cyclo([Ahp]F[dW]KT(Bn)); ring closure inferred)
GH plasma levels
  GH plasma levels vs control: the same as in the control fish
Tilapia SSTR3b [2]; COS-7 cells, in presence of octreotide 10 nM and FSK 20 μM, mean ± SEM, read-out: EC50 on SST-R3b (Cre-luciferase)
  EC50: 46.2 ± 3.82 nM
Tilapia SSTR3b [2]; in the presence of both FSK and octreotide
  Activation of SSTR3b (Cre-luc): efficient activation
Tilapia SSTR5b [3]; in presence of octreotide 10 nM and FSK 20 μM, read-out: EC50 on SST-R5b (Cre-luciferase)
  EC50: 2.15 ± 0.009 nM
Tilapia SSTR2a [4]; in presence of octreotide 10 nM and FSK 20 μM, read-out: EC50 on SST-R2a (Cre-luciferase)
  EC50: 189 ± 4.34 nM
FSH plasma levels
  FSH plasma levels vs control: increased
FSH plasma levels; listed as SSTR antagonist
  FSH plasma levels vs control: remained elevated for 6 h
LH plasma levels
  LH plasma levels vs control: increased
LH plasma levels; listed as SSTR antagonist
  LH plasma levels vs control: returned to baseline after 4 h
Tilapia SSTR3a [8]
  EC50: 0.1 ± 0.001 nM

## CC(C)C[C@@H]1NC(=O)CNC(=O)[C@H](CCCCN)NC(=O)[C@H](Cc2c[nH]c3ccccc23)NC(=O)[C@H](Cc2ccc(O)cc2)NC(=O)[C@H](Cc2ccccc2)NC(=O)[C@H](CC(N)=O)NC(=O)[C@H](CCCCN)NC(=O)[C@@H](NC(=O)CNC(=O)[C@H](C)N)CSSC[C@@H](C(=O)O)NC(=O)[C@H](CO)NC(=O)[C@H]([C@@H](C)O)NC1=O [SST3] (H-AGCKNFYWKGLTSC-OH; disulfide 3-14; N-terminus and C-terminus assumed)
Tilapia SSTR2a [1]
  Effect on tiSSTR2a Cre-luc activity: inhibited
Tilapia SSTR3a [6]
  IC50: 572.9 ± 0.1 nM
Tilapia SSTR5b [7]
  IC50: 720.2 ± 0.5 nM

## C[C@H](N)C(=O)N1CCC[C@H]1C(=O)N[C@H]1CSSC[C@@H](C(=O)O)NC(=O)[C@H](CO)NC(=O)[C@H]([C@@H](C)O)NC(=O)[C@H](Cc2ccccc2)NC(=O)[C@H]([C@@H](C)O)NC(=O)[C@H](CCCCN)NC(=O)[C@H](Cc2c[nH]c3ccccc23)NC(=O)[C@H](Cc2ccccc2)NC(=O)[C@H](Cc2ccccc2)NC(=O)[C@H](CC(N)=O)NC(=O)[C@H](CCCCN)NC1=O [SST6] (H-APCKNFFWKTFTSC-OH; disulfide 3-14; N-terminus and C-terminus assumed)
Tilapia SSTR2a [1]
  Effect on tiSSTR2a Cre-luc activity: inhibited
Tilapia SSTR3a [6]
  IC50: 3.75 ± 0.04 nM
Tilapia SSTR5b [7]
  IC50: 906.1 ± 0.5 nM
